Source: article PMC10518717, “High-Throughput Screening and Proteomic Characterization of Compounds Targeting Myeloid-Derived Suppressor Cells” (Molecular & Cellular Proteomics : MCP, 2023)

Biological target: T1, NUP-MDSC cell lysate (Mus musculus, UniProt O70589)
T1 construct: endogenous in cells; host or cells: mouse NUP-MDSC (lysate)
T1 sequence (O70589 1-926): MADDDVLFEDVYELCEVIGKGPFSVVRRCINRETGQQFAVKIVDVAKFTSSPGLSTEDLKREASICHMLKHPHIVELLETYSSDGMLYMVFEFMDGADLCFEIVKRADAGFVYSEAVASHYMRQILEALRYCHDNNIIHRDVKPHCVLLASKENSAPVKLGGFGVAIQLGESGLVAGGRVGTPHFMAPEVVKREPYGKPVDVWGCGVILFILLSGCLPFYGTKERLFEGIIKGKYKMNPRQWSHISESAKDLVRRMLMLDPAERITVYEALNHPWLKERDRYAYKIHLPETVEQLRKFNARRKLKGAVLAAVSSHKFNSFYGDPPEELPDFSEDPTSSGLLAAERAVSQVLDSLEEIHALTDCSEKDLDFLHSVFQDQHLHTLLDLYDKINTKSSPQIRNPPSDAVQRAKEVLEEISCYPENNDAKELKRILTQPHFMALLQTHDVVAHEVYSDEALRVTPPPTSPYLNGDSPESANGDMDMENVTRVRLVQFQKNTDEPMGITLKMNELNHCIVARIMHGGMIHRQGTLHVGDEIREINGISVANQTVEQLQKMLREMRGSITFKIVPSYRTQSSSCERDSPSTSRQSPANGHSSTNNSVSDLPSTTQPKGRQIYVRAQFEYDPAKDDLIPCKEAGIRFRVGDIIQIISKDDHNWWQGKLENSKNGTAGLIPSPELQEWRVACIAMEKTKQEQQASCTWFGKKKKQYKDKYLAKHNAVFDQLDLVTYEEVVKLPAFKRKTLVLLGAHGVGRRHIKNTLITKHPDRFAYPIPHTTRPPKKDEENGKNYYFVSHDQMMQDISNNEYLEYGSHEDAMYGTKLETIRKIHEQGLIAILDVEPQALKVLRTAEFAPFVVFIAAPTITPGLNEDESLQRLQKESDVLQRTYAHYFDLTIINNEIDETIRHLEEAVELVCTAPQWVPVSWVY
Assay: Solvent-induced protein precipitation profiling, proteome-wide
Type: binding
Conditions: protein Cask; soluble fraction; 26 uM
Method: NUP-MDSCs were differentiated as described above, washed twice with PBS, resuspended in lysis buffer (PBS, 0.4% IGEPAL CA-630, 1× Halt Protease-Inhibitor Cocktail (Thermo Fisher Scientific)), and subjected to three freeze-thaw cycles. The lysate was cleared by centrifugation for 30 min at 18,000g and 4 °C. The soluble fraction was diluted to 4 mg/ml and allowed to warm up to room temperature. Equal volumes of lysate were treated in triplicates with 100 x compound stock solutions (in DMSO) or DMSO for 15 min at room temperature (final concentrations: cmpd 2: 7.8 μM (3xEC50) and 26 μM (10xEC50), cmpd 3: 10 μM and 26 μM). Similar to a previous study ([46]), each sample was divided into eight aliquots to be denatured using different concentrations (8%, 10%, 12%, 14%, 16%, 18%, 20%, 22%) of acetone:ethanol:acetic acid (50:50:0.1) in water for 20 min at 37 °C with vigorous shaking. Aggregated proteins were separated by centrifugation for 45 min at 4 °C and 3900g. Next, equal amounts of the soluble fraction were pooled for subsequent proteomic analysis.
Methanol was added to 100 μg of the pooled supernatants to a final concentration of 70% and further processed according to the R2P1 protocol ([47]), with tryptic digestion performed in 50 mM Hepes (pH 8.5). Elution fractions were combined and dried by vacuum centrifugation. Dried samples were resuspended in deionized water, and TMT labeling was performed according to Zecha et al. ([35]). All 15 samples (5 treatment conditions in triplicates) were labeled with one TMTpro plex. Next, equal amounts were pooled and desalted by C18 solid-phase extraction cartridges (Sep-Pak Vac 1 cc C18 Cartridges, Waters Corp). Desalted peptides were chromatographically separated via basic reversed phase chromatography as previously described ([36]) into 24 fractions, dried down, and stored at −20 °C until further analysis.
Peptides were analyzed via LC-MS/MS on a Vanquish Neo UHPLC coupled to an Orbitrap Eclipse Tribrid mass spectrometer (Thermo Fisher Scientific). […] The mass spectrometer was operated in data-dependent mode and positive ionization mode. Samples were measured, employing a MS3 method with real-time search. […] Iontrap-MS2 spectra for peptide identification were acquired using HCD fragmentation with 35% NCE, an isolation window of 0.7 m/z, an AGC target value of 5e4 charges, and a maxIT of 35 ms. To obtain quantitative information on TMT reporter ions, each peptide precursor was fragmented again as for MS2 analysis followed by synchronous selection of the up to 10 most intense peptide fragments in the iontrap ([37]) and further fragmentation via HCD using an NCE of 55%. For the MS3 scan, real-time search was enabled to only trigger a MS3 scan for peptides that are TMT-labeled and can be identified (searched against a mouse database, same as used for maxquant processing). The MS3 scan was recorded in the OT at 30,000 resolution (scan range 110–500 m/z, isolation window of 0.7 m/z, AGC of 2e4 charges, maxIT of 120 ms). The cycle time was set to 3 s, and the dynamic exclusion lasted for 60 s.
Raw files were searched with Maxquant (v. 2.0.3.0) against the mouse reference proteome (UP000000589, canonical, download 10/2019, 55,029 entries) with standard settings for reporter ion MS3 unless described otherwise ([39]). Isotope impurities of the TMT lot were specified to allow MaxQuant the automated correction of TMT intensities. […] Trypsin/P was specified as the proteolytic enzyme with up to two missed cleavage sites allowed. […]

log2 FC cmpd2_26uM/cmpd3_26uM: 0.23
SMILES: CCOC(=O)c1nnn(-c2nn3nnnc3c3ccccc23)c1C [compound 2]
